Laboratory results published in patent US7928088B2, “Th1 cell differentiation accelerator” (priority 2006, dated 2011).
Like-named read-outs stand apart in the source and are kept apart here.

How the values were obtained:
human naive CD4T cells [1] = assay: Human Th2 differentiation induction culture with intracellular IFNγ/IL-4 staining and flow cytometry; type: cell-based; conditions: for ratio of IFNγ-producing cells (in words) / ratio of IL-4-producing cells (in words) / IFNγ+IL-4− cells (%) / IFNγ−IL-4+ cells (%): Th2 differentiation inducing conditions; for IFNγ+IL-4− cells (%) / IFNγ−IL-4+ cells (%): crude human CD4T cells; for IFNγ+IL-4− cells (%): control 18.1; for IFNγ−IL-4+ cells (%): control 19.4
Procedure: Separation of human naive CD4T cells was performed using an automated magnetic cell sorter (autoMACS Miltenyi Biotec GmbH) by the method described below. Whole blood was drawn by venous paracentesis from six healthy donor volunteers at 24 to 50 years of age. 50 ml of human peripheral blood was diluted two fold with 50 ml of a D-PBS solution (Sigma-Aldrich Inc). Next, 25 ml of the above-described diluted peripheral blood was gradually overlain in four centrifugal tubes containing 12.5 ml of Ficoll-Paque Plus (Amersham Biosciences), and the tubes were centrifuged using a centrifuge at room temperature and 950 G for 30 minutes. After centrifugation, lymphocytes present in the intermediate layer between the Ficoll-Paque and the supernatant were recovered, and suspended in a D-PBS solution containing 3% fetal calf serum (FCS: JRH Biosiences) and 2 mM EDTA (Dojindo Inc) (hereinafter, referred to as MACS buffer); the suspension was centrifuged using a centrifuge at 4° C. and 500 G for 5 minutes to sediment the lymphocytes. The resulting lymphocyte pellet was again suspended in MACS buffer; the suspension was centrifuged at 500 G for 5 minutes to sediment the lymphocytes, and twice washed to yield a lymphocyte pellet. This cell pellet was again suspended in the MACS buffer to obtain a cell density of 1×10^8 cells/ml. To 1×10^7 lymphocytes, 2 μL of an FITC-labeled anti-human CD8 antibody (BD BioScience Pharmingen) and 2 μL of an FITC-labeled anti-human CD45RO antibody (BD BioScience Pharmingen) were added, and they were reacted on ice for 30 minutes to thereby bind each antibody. The MACS buffer was added to the reaction mixture, and the mixture was centrifuged and twice washed at 4° C. Next, 10 μL of anti-FITC microbeads (Miltenyi Biotec GmbH) was added to 1×10^7 lymphocytes coupled with each antibody, and they were reacted with each other on ice for 15 minutes. The MACS buffer was added to the reaction mixture, and the mixture was centrifuged and twice washed at 4° C. The cell pellet obtained was suspended in the MACS buffer to obtain a cell density of 5×10^7/ml, and the suspension was passed through a nylon mesh (Abe Kagaku), after which a CD8- and CD45RO-double-negative fraction was recovered using an automated magnetic cell sorter (AutoMACS Miltenyi Biotec GmbH) to thereby separate human naive CD4T cells, which were supplied for the following experiments.
Under Th2 differentiation conditions, the cells were stimulated on a plate having the anti-CD3 antibody immobilized thereon for 2 days in a differentiation induction medium containing 50 U/ml (final concentration) IL-2 (Immunace, Shionogi & Co., Ltd.), 1 ng/ml (final concentration) IL-4, and 5 μg/ml (final concentration) anti-IFNγ antibody (Pharmingen, and the cells were transferred to a plate without immobilized anti-CD3 antibody, and cultured for 5 days. Furthermore, in the case of Th2 cell differentiation, following the 2 days, 5 days of differentiation induction was performed in two consecutive cycles.
Unless otherwise specified, the final concentrations of CW, LAM/LM, PIM2 and PIM6 were adjusted to 100 μg/ml.
Cells undergoing Th1 differentiation induction (Th1-induced cells) and cells undergoing Th2 differentiation induction (Th2-induced cells) were cultured and stimulated in the presence of Monensin (Sigma) in a medium supplemented with PMA (Phorbol-12-Myristate-13-Acetate, Sigma-Aldrich) and Ionomycin (Calbiochem) for 4 hours. After stimulation, intracellular staining was performed by the method described below, the cells were analyzed using a cell analyzer (FACScalibur), and the degree of Th1 or Th2 differentiation induction was evaluated. […]

human naive CD4T cells [2] = type: cell-based; conditions: for IFNγ+IL-4− cells (%) / ratio of IFNγ-producing cells (in words): Th1 differentiation inducing conditions; for IFNγ+IL-4− cells (%): crude human CD4T cells; for ratio of IFNγ-producing cells (in words): summary of Tables 4 and 5
[3] = 10 μg/ml, Table 4 test, vehicle 51.2
[4] = 30 μg/ml, Table 5 test, vehicle 60.6
[5] = 100 μg/ml, Table 4 test, vehicle 51.2
[6] = 100 μg/ml, Table 5 test, vehicle 60.6

Row | Substance | ratio of IFNγ-producing cells (in words) (human naive CD4T cells [1]; FIG. 13 and Table 6) | ratio of IL-4-producing cells (in words) (human naive CD4T cells [1]; FIG. 13 and Table 6) | IFNγ+IL-4− cells (%) (human naive CD4T cells [1]; 3 μg/ml) | IFNγ−IL-4+ cells (%) (human naive CD4T cells [1]; 3 μg/ml) | IFNγ+IL-4− cells (%) (human naive CD4T cells [1]; 30 μg/ml) | IFNγ−IL-4+ cells (%) (human naive CD4T cells [1]; 30 μg/ml) | IFNγ+IL-4− cells (%) (human naive CD4T cells [2]; [3]) | IFNγ+IL-4− cells (%) (human naive CD4T cells [2]; [4]) | IFNγ+IL-4− cells (%) (human naive CD4T cells [2]; [5]) | IFNγ+IL-4− cells (%) (human naive CD4T cells [2]; [6]) | ratio of IFNγ-producing cells (in words) (human naive CD4T cells [2]) | number of IL-4-producing cells (in words) (human naive CD4T cells [1]; Th2 differentiation conditions, T cells from six healthy human volunteers, 100 μg/ml, FIGS. 8 and 9) | ratio of IFNγ-producing cells (in words) (human naive CD4T cells [1]; 100 μg/ml, FIG. 7B) | ratio of IL-4-producing cells (in words) (human naive CD4T cells [1]; 100 μg/ml, FIG. 7B) | number of IFNγ-producing cells (in words) (human naive CD4T cells [2]; Th1 differentiation conditions, T cells from six healthy human volunteers, 100 μg/ml, FIGS. 8 and 9) | potential to induce Th1 differentiation (human naive CD4T cells [2]; Th1 differentiation induction, 100 μg/ml, FIG. 7B)
1 | lipoarabinomannan [LAM] | dose-dependently increased | dose-dependently suppressed | 26.9% | 17.2% | 34.8% | 11.9% | 55.9% | 63.1% | 55.4% | 67.6% | significantly increased |  |  |  |  | 
2 | lipomannan [LM] | dose-dependently increased | dose-dependently suppressed | 29.5% | 14.3% | 38.4% | 8.8% | 56.7% | 70.5% | 67.9% | 69.1% | significantly increased |  |  |  |  | 
3 | cardiolipin [reference compound] |  |  |  |  |  |  |  |  |  |  |  | increased | did not increase | increased | did not increase | did not exhibit the potential to induce Th1 differentiation
